The source of these data is patent US20220175771A1, “CANCER TREATMENT MODALITIES” (priority 2017, published 2022).

For series [1], the system named is SMARCA2/SMARCA4 dual loss NSCLC cell line xenografts. In words: NSCLC xenograft model in vivo. The note with it: ~250 mg/kg body weight.
Another series in a line: Oral bioavailability. The note with it: in vivo.

For `CCN(c1cc(-c2ccc(CN3CCOCC3)cc2)cc(C(=O)NCc2c(C)cc(C)[nH]c2=O)c1C)C1CCOCC1` [Compound 44, tazemetostat], the tumor growth inhibition result in series [1] (dual loss xenografts compared with SMARCA4 single loss xenografts) is recorded as “more prominent”. Also, in series [1] (in two of the four SMARCA2/SMARCA4 dual loss cell lines), the tumor regression result is “tumor regression was observed”. Further, the oral bioavailability entry in “Oral bioavailability” is “orally bioavailable”.
